Measurements as given in article PMC10374545, “A small molecule inhibitor of PTP1B and PTPN2 enhances T cell anti-tumor immunity” (Nature Communications, 2023).
“And” between values parts separate entries of the source, which are not always exact repeats. Equal entries are not always repeated.

Tests used:
[1] = system: SFK Y418 phosphorylation in naive CD8+ T cells; assay: TCR signaling, p-SFK (Y418) by flow cytometry; assay type: cell-based, mouse; details: for p-SFK MFI, single replicates: 10 μM 4 h, Fig. 2D raw data, listed as CMP-182
Procedure: For assessing TCR signaling, single-cell suspensions of naïve (CD44^loCD62L^hi) lymph node CD8^+ T cells (isolated using the EasySep™ Mouse Naïve CD8^+ T cell Isolation Kit, Stemcell Technologies) were washed with ice-cold PBS supplemented with 2% (v/v) FBS and stained with fixable viable dye and fluorophore-conjugated antibodies to CD8 and CD4 on ice for 15 min. […] Cells were then incubated with 5 μg/ml hamster α-mouse CD3ε for 20 min on ice, washed with complete T cell medium supplemented with 1% (v/v) FBS, and then TCR cross-linked with goat α-hamster IgG (20 μg /ml, Sigma) for the indicated times at 37 °C. The reaction was terminated by the addition of paraformaldehyde (BD Cytofix™ Fixation Buffer) to a final concentration of 2% (v/v) on ice for 20 min. Fixed cells were washed in complete T cell medium/1% (v/v) FBS and permeabilised with 90% (v/v) methanol on ice for 30 min. Permeabilised cells were stained with fluorophore-conjugated antibodies to Y418 phosphorylated and activated SFKs (p-SFK; 1:100, Invitrogen) for 1 h at room temperature; p-SFK mean fluorescence intensities in CD8^+ T cells were determined by flow cytometry.

[2] = system: AT3 mammary tumors; assay: AT3 tumor growth in Lck-Cre;Ptpn2fl/fl mice; assay type: in vivo, mouse; design: key to Tumour growth: tumour size in mm^2 (two-dimensional caliper measurement); Tumour weights / Tumour weights (mean): unit not given here; details: for Tumour size (mean): CMP-182 in LCK-CRE-PTPN2 mice (Group C), in mm2; for Tumour growth: individual mice (Figure 8D)
Procedure: Male or female mice were injected subcutaneously with 5 × 10^5 MC38 tumor cells resuspended in 100 μl D-PBS into the flank. Alternatively, female mice were injected orthotopically with 5 × 10^5 AT3 or AT3-OVA or PTPN2-deleted AT3 or AT3-OVA tumor cells resuspended in 20 μl D-PBS into the fourth mammary fat pad. Tumor sizes were measured in two dimensions (mm^2) using electronic callipers two to three times per week as soon as tumors were palpable (20–25 mm^2).

[3] = system: STAT-5 Y694 phosphorylation in NK cells; assay: IL-15-induced p-STAT-5 in NK cells; assay type: cell-based, mouse; details: 0.1 or 1 (µM in figure, µg/ml in legend)
Procedure: proliferation in vitro. a-b) NK cells from C57BL/6 male mice (n=3 per group) were expanded […]
µg/ml) or vehicle (1% v/v DMSO) in the absence of IL-15. a) NK cells were re-stimulated for 15 min with the indicated amounts of IL-15 and Y694 phosphorylated STAT-5 (p-STAT-5) mean fluorescence intensities (MFIs) determined by flow cytometry. b) Alternatively, NK cells were stained with carboxyfluorescein succinimidyl ester (CFSE, Invitrogen) and then re-stimulated with the indicated amounts of IL-15 for 96 h and NK cell proliferation (CFSE dilution) monitored by flow cytometry. c-d) NK cells from C57BL/6 male mice (n=3 per group) were expanded ex vivo in the presence of IL-15 and then pre-treated with CMP-182 (0.1 or 1 µg/ml) or vehicle in the absence of IL-15. NK cells were re-stimulated with either IL-12 (10 ng/ml) or IL-18 (100 ng/ml) or with α-NK1.1 or α-Ly49H for 4 h. NK cells were maintained in 10 ng/ml IL-15 throughout the 4 h incubation time. Percentages of c) IFN-γ+ and d) CD107A+ NK cells were determined by flow cytometry. In (a-d) results shown are means ± SEM and are representative of at least two independent experiments.

[4] = biological target: T1, PTP1B (Homo sapiens, UniProt P18031); assay: Mode of inhibition and Ki, Lineweaver-Burk kinetic analysis with DiFMUP; assay type: biochemical
T1 construct: PTP1B, residues 1-321; made in house; host or cells: E. coli BL21(DE3)
T1 sequence (P18031 1-321): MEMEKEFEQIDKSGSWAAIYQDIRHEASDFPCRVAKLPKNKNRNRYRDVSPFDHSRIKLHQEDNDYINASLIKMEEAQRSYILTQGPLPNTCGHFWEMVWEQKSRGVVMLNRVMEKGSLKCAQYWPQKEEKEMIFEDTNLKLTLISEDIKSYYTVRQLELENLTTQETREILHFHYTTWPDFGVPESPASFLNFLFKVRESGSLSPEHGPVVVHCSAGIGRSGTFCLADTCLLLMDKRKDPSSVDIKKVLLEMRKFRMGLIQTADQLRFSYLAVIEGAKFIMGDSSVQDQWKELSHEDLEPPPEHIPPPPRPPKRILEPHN
Procedure: To determine the mode of inhibition, the reactions were initiated by the addition of enzyme (final concentration for PTP1B and PTPN2 was 0.05 nM) to the reaction mixtures (0.2 ml) containing various concentrations of DiFMUP with different concentrations of the inhibitor. […] The fluorescence signal was measured using a CLARIOstar Plus Microplate Spectrophotometer (BMG Labtech) using excitation and emission wavelength of 340 nm and 450 nm, respectively. Data were fitted using Prism GraphPad 9.2.0. For selectivity studies, the inhibition assay for other PTPs were performed under the same conditions as used for PTP1B and PTPN2 except with different DiFMUP concentration corresponding to the Km of the PTP studied.

Compound: CC(C)(O)CCOc1ccc2cc(O)c(N3CC(=O)NS3(=O)=O)c(F)c2c1 [Compound 182, 5-(1-Fluoro-3-hydroxy-7-(3-hydroxy-3-methylbutoxy)naphthalen-2-yl)−1,2,5-thiadiazolidin-3-one 1,1-dioxide]
- p-SFK MFI, single replicates ([1]; TCR cross-linking time 0): 92.6 and 93.9 and 88
- p-SFK MFI, single replicates ([1]; TCR cross-linking time 2): 252 (2×) and 216
- p-SFK MFI, single replicates ([1]; TCR cross-linking time 5): 211 and 192 and 269
- p-SFK MFI, single replicates ([1]; TCR cross-linking time 10): 178 and 172 and 193
- p-SFK, column mean ([1]; 10 uM, mean over all times, two-way ANOVA, Fig. 2D): 184.1
- p-SFK, group mean (Mean 2) ([1]; 10 uM, time 0, N 3, Fig. 2D): 91.5
- p-SFK, group mean (Mean 2) ([1]; 10 uM, time 2, N 3, Fig. 2D): 240
- p-SFK, group mean (Mean 2) ([1]; 10 uM, time 5, N 3, Fig. 2D): 224
- p-SFK, group mean (Mean 2) ([1]; 10 uM, time 10, N 3, Fig. 2D): 181
- TCR-induced SFK Y418 phosphorylation (p-SFK) ([1]; α-CD3/IgG crosslinking): enhanced
- AT3 tumor growth in Lck-Cre;Ptpn2fl/fl mice ([2]; 10 mg/kg i.v., beyond PTPN2 deletion in T cells): further suppressed tumor growth
- eradication of AT3 tumors in Lck-Cre;Ptpn2fl/fl mice ([2]; 10 mg/kg i.v., tumors eradicated/total): 3/6
- Tumour weights (mean) ([2]; AT-3 tumours, CMP-182 in LCK-CRE-PTPN2 mice): 7
- Tumour size (mean) ([2]; AT-3 tumours, time point 7): 19.03
- Tumour size (mean) ([2]; AT-3 tumours, time point 10): 21.39
- Tumour size (mean) ([2]; AT-3 tumours, time point 12): 20.59
- Tumour size (mean) ([2]; AT-3 tumours, time point 14): 19.84
- Tumour size (mean) ([2]; AT-3 tumours, time point 16): 13.84
- Tumour size (mean) ([2]; AT-3 tumours, time point 19): 12.75
- Tumour size (mean) ([2]; AT-3 tumours, time point 21): 13.01
- Tumour size (mean) ([2]; AT-3 tumours, time point 23): 11.77
- Tumour weights, median ([2]; AT-3 tumours, CMP-182 in LCK-CRE-PTPN2 mice, n=6): 7.500, n=6
- Tumour growth ([2]; AT-3 tumours, LCK-CRE-PTPN2 mice n=6, day 7 post injection, listed as CMP-182): 13.566 (2×) and 20.8844 (2×) and 21.6987 (2×) and 6.7144 (2×) and 16.1674 (2×) and 35.1652 (2×)
- Tumour growth ([2]; AT-3 tumours, LCK-CRE-PTPN2 mice n=6, day 10 post injection, listed as CMP-182): 12.25 (2×) and 27.03 (2×) and 24 (2×) and 10.5 (2×) and 18.4 (2×) and 36.18 (2×)
- Tumour growth ([2]; AT-3 tumours, LCK-CRE-PTPN2 mice n=6, day 12 post injection, listed as CMP-182): 9 (2×) and 29.15 (2×) and 22.5 (2×) and 12.6 (2×) and 15.2 (2×) and 35.1 (2×)
- Tumour growth ([2]; AT-3 tumours, LCK-CRE-PTPN2 mice n=6, day 14 post injection, listed as CMP-182): 9 (2×) and 25.92 (2×) and 22.5 (2×) and 13.32 (2×) and 14.35 (2×) and 33.92 (2×)
- Tumour growth ([2]; AT-3 tumours, LCK-CRE-PTPN2 mice n=6, day 16 post injection, listed as CMP-182): 0 (4×) and 24.48 (2×) and 22.95 (2×) and 7.5 (2×) and 28.08 (2×)
- Tumour growth ([2]; AT-3 tumours, LCK-CRE-PTPN2 mice n=6, day 19 post injection, listed as CMP-182): 0 (4×) and 22.55 (2×) and 22.95 (2×) and 4 (2×) and 27 (2×)
- Tumour growth ([2]; AT-3 tumours, LCK-CRE-PTPN2 mice n=6, day 21 post injection, listed as CMP-182): 0 (4×) and 27.56 (2×) and 22.5 (2×) and 4 (2×) and 24 (2×)
- Tumour growth ([2]; AT-3 tumours, LCK-CRE-PTPN2 mice n=6, day 23 post injection, listed as CMP-182): 0 (4×) and 25 (2×) and 22.54 (2×) and 1 (2×) and 22.08 (2×)
- Tumour weights ([2]; AT-3 tumours, LCK-CRE-PTPN2 mice n=6, individual mice (Figure 8D), listed as CMP-182): 0 and 12 and 10 and 5 and 15
- IL-15-induced p-STAT-5 in NK cells [3]: did not enhance
- mode of inhibition [4]: classic competitive inhibitor
